Measured values taken from patent publication US12611404B2, “Aza-aryl 1H-pyrazol-1-yl benzene sulfonamides” (ChemoCentryx, Inc., priority 2012, dated 2026).
pIC50: −log10 of the molar value.

Target: T1, CCR(9) (Homo sapiens, UniProt P51686)
T1 construct: CCR(9)-expressing cells such as T cell line MOLT-4 cells; host or cells: MOLT-4 cells
T1 sequence (P51686 1-369): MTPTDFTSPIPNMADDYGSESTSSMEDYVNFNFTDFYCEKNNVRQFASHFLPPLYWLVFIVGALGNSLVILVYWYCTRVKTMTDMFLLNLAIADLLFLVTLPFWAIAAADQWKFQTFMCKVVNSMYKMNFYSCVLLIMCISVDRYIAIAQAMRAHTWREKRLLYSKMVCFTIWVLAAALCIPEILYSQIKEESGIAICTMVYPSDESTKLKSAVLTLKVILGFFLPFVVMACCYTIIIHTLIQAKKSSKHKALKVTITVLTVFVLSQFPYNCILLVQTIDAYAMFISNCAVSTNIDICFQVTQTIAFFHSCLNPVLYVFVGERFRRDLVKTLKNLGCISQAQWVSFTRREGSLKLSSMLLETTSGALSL
Experiment: calcium mobilization assay (FLIPR, MOLT-4 cells, hTECK)
Assay type: cell-based
Details: read-out: CCR(9) Ca^2+
Protocol: In calcium signaling assays used to determine the ability of a compound to interfere with binding between a chemokine receptor and a known chemokine ligand, chemokine receptor-expressing cells (CCR(9)-expressing cells such as T cell line MOLT-4 cells) are first incubated with a compound of interest, such as a potential chemokine antagonist, at increasing concentrations. The cell number can be from 10^5 to 5×10^6 cells per well in a 96-well microtiter plate. The concentration of the compound being tested may range from 0 to 100 μM. After a period of incubation (which can range from 5 to 60 minutes), the treated cells are placed in a Fluorometric Imaging Plate Reader (FLIPR®) (available from Molecular Devices Corp., Sunnyvale, CA) according to the manufacturer's instruction. The FLIPR® system is well known to those skilled in the art as a standard method of performing assays. The cells are then stimulated with an appropriate amount of the chemokine ligand (TECK for CCR(9)) at 5-100 nM final concentration, and the signal of intracellular calcium increase (also called calcium flux) is recorded. The efficacy of a compound as an inhibitor of binding between the […] and the ligand can be calculated as an IC50 (the concentration needed to cause 50% inhibition in signaling) or IC90 (at 90% inhibition). […]
A cytoplasmic calcium mobilization assay was used to determine the efficacy of potential receptor antagonists at blocking the signals mediated through chemokine receptors, such as CCR(9). This assay was routinely performed using the Fluorescent Imaging Plate Reader (FLIPR, Molecular Devices). […] The chemokine agonist (i.e., hTECK), prepared in HBSS at a 5× concentration of the previously determined EC^50 concentration, was added to each well and resulting changes in the fluorescent intensity, indicative of chemokine receptor-mediated signaling, were recorded on the FLIPR.

pIC50 | SMILES
> 7.00 | CCc1cc(NS(=O)(=O)c2ccc(C(C)(C)C)cc2)n(-c2cccc3ncccc23)n1
> 7.00 | Cc1cc(NS(=O)(=O)c2ccc(C(C)(C)C)cc2Cl)n(-c2cccc3ncccc23)n1
> 7.00 | Cc1cc(NS(=O)(=O)c2ccc(C(C)(C)C)cc2)n(-c2ccc3cccnc3c2)n1
